Source: PMC5929560, “Deciphering the binding behavior of flavonoids to the cyclin dependent kinase 6/cyclin D complex” (PLoS ONE, 2018)

Experiments:
CDK6 [1] = target: CDK6 (Homo sapiens, UniProt Q00534); assay: Filter-binding kinase assay with [γ-32P]ATP and histone H1; format: biochemical; settings: 25 μM ATP, 20 min at 30°C, triplicate
Experimental: To quantify the inhibitory activities of flavonoids on CDK6, the filter-binding assay was performed in 96-well filter plates. The total volume for each well was 0.1mL containing a final concentration of 20mM Tris-HCl (pH 7.4), 50mM NaCl, 1mM dithiothreitol, 10mM MgCl2, 25μM ATP (containing 0.25μCi of [γ-^32P]ATP), 0.1μg of CDK6, 10μg of histone H1, and appropriate dilutions of inhibitor. The reaction was initiated by the addition of [γ-^32P]ATP, and then incubated for 20min at 30°C. Samples were applied to P81 phosphocellulose papers strips (Whatman), and the strips were washed in phosphoric acid solution. The radioactivity was measured by liquid scintillation spectrometry. IC50 values were calculated from the dose-response curves. All experiments were carried out in triplicate.

CDK6 [2] = settings: cited from earlier work

Chain of CDK6 (Homo sapiens, UniProt Q00534) (Q00534 whole entry): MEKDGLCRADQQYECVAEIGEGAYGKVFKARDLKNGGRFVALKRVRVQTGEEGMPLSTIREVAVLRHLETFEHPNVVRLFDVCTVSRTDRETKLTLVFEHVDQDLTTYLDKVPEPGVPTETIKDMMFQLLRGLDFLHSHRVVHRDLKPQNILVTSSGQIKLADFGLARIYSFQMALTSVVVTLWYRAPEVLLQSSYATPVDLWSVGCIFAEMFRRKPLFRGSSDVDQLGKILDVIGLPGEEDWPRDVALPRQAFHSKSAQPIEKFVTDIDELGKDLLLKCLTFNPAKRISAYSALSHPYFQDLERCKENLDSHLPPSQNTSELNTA
Chain of CDK6 (Homo sapiens, UniProt Q00534) (P30281 whole entry partner): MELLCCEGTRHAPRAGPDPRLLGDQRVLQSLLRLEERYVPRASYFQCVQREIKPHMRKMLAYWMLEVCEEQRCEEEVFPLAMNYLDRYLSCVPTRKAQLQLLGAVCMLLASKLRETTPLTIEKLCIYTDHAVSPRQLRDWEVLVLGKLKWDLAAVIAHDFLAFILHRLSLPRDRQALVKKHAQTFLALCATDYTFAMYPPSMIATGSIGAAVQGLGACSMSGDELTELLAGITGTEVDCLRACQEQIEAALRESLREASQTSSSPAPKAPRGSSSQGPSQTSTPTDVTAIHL

IC50 (CDK6 [1]) [µM]	Compound	IC50 (CDK6 [2]) [µM]
52 ± 2.8	O=c1c(O)c(-c2ccccc2)oc2cc(O)cc(O)c12 [M04, Galangin]	–
38 ± 2.1	O=c1c(-c2ccc(O)cc2)coc2cc(O)cc(O)c12 [M05, Genistein]	–
19.8 ± 1.6	O=c1c(O)c(-c2ccc(O)cc2)oc2cc(O)cc(O)c12 [M07, Kaempferol]	–

The remaining lines, values behind:

Compound	IC50 (CDK6 [1]) [µM]	IC50 (CDK6 [2]) [µM]
O=c1cc(-c2ccccc2)oc2cc(O)cc(O)c12 [M01, Chrysin]	4.5 ± 0.4	–
O=c1c(O)c(-c2ccc(O)c(O)c2)oc2cc(O)ccc12 [M03, Fisetin]	–	0.85
O=c1c(O)c(-c2ccc(O)c(O)c2)oc2cc(O)cc(O)c12 [M06, Quercetin]	26.3 ± 1.9	26
O=c1cc(-c2ccc(O)c(O)c2)oc2cc(O)ccc12 [M15, 3’, 4’, 7-trihydroxyflavone]	23.3 ± 1.5	–
